The source of these data is US20060127980A1, “Human excitatory amino acid transporter-2 gene promoter and uses thereof” (priority 2003, published 2006).

The test system of the assay is hEAAT2 promoter. The assay is described as follows: hEAAT2 promoter luciferase assay of agents in PHFA-Im (FIG. 11). The class given is cell-based, human. The settings on record: 10 μM. How it is done: (§1) FIG. 11. Effect of various agents on hEAAT2 promoter activity in immortalized primary human fetal astrocytes (PHFA-Im). A: ceftriaxone; B: amoxicillin; C: chloramphenicol; D: thiamphenicol; E: vancomycin; F: glycine; G: glutamate; H: DMSO; I: dibutyryl cAMP. PHFA-Im is a human telomerase-immortalized clone of primary human fetal astrocytes. PHFA-Im cells were seeded at 5×10^4 cells/35-mm plate. Twenty-four h later cells were untreated (CON) or received the indicated compound at a final concentration of 10 μM. Forty-eight h later the cells were transfected with a FL pGL3/EAAT2 luciferase reporter construct (5 μg) plus a pSVβGalactosidase construct (1 μg) using the calcium phosphate precipitation method (Su et al. 2003, Proc. Natl. Acad. Sci. USA 100:1955-1960). After an additional 48 h, cell lysates were prepared and luciferase activity was determined using the Luciferase Assay System Kit (Promega, E1501) and luminescence determined using a luminometer (Turner Designs, TD20/20) (Su et al. 2003, Proc. Natl. Acad. Sci. USA 100:1955-1960). Data presented are the average of 3 independent plates±S.D. Qualitatively similar results were obtained in 2 additional experiments.
as §1, with “The effects” for “FIG. 11. Effect”, “these same” for “various”, “also were examined” for “on hEAAT2 promoter activity”, “two other cell lines to confirm the generality of the findings. […] PHFA-Im is a cell line developed from a clonal isolate of a” for “immortalized”, “astrocyte immortalized by transformation with the reverse transcriptase subunit of” for “astrocytes (PHFA-Im). A: ceftriaxone; B: amoxicillin; C: chloramphenicol; D: thiamphenicol; E: vancomycin; F: glycine; G: glutamate; H: DMSO; I: dibutyryl cAMP. PHFA-Im is a”, “telomerase.” for “telomerase-immortalized clone of primary human fetal astrocytes.”

Turning to `CCCC(=O)Nc1ncnc2c1ncn2[C@@H]1O[C@@H]2COP(=O)(O)O[C@H]2[C@H]1OC(=O)CCC` [dbcAMP, dibutyryl cyclic AMP], the hEAAT2 promoter activity result was “potent stimulators”.
